Assay results reported in patent US7608716B2, “Pyrazolonaphthyridine derivative” (Aska Pharmaceutical Co., Ltd., priority 2002, dated 2009).

Legend:
CYP3A4 = target: T1, CYP3A4 (Homo sapiens, UniProt P08684); assay: Inhibition of drug-metabolizing enzyme CYP3A4 (CYP3A4/BFC kit); format: in vitro ADME; conditions: CYP3A4-expressing microsomes, BFC substrate, 37° C., 30 minutes; read-out: Inhibition of Drug-Metabolizing Enzymes (IC50; μM) CYP3A4
T1 construct: purchased BD Biosciences, NJ, USA; host or cells: CYP3A4-expressing system microsomes
T1 sequence (P08684 whole entry): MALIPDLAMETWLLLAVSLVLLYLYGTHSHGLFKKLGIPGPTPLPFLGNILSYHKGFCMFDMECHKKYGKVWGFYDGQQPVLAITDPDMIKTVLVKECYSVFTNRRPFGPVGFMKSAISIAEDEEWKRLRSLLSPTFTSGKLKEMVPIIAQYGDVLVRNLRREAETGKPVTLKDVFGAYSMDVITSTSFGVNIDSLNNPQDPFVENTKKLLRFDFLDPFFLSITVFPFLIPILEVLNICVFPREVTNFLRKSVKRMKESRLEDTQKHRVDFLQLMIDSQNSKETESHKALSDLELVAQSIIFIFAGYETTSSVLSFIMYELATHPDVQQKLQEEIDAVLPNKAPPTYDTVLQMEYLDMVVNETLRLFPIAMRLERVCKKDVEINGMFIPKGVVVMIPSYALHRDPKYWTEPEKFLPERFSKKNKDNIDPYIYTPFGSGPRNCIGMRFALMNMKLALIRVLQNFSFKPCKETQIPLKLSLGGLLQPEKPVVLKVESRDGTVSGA
Protocol: (§1) The inhibitory effect on CYP2D6 and CYP3A4 was determined using High Throughput Inhibitor Screening Kits: CYP2D6/AMMC and CYP3A4/BFC (both from BD Biosciences, NJ, USA). Briefly, each of NADPH regenerating systems, cofactors, and test compounds was dispensed into 96-well plates, followed by addition of each of fluorescent substrates, AMMC (CYP2D6) or BFC (CYP3A4). To each well were added CYP2D6-expressing system microsomes or CYP3A4-expressing system microsomes, and the plates were incubated at 37° C. for 30 minutes, and then read for fluorescent signals (CYP2D6: ex=390 nm, em=460 nm; CYP3A4: ex=409 nm, em=538 nm wherein excitation wavelength: ex and emission wavelength: em). Thus, each inhibitory efficacy on enzymes CYP2D6 and CYP3A4 was determined. Roflumilast was used for the reference compound in this assay.

[1] = tested on: lung eosinophil infiltration; assay: Inhibition of lung eosinophil infiltration (OVA-sensitized, BALF); format: in vivo, Hartley guinea-pigs; conditions: Cavia porcellus, guinea-pigs, oral, 1 hour before OVA inhalation, BALF eosinophils at 24 hours, read-out: Inhibition of Lung Eosinophil Infiltration ED50: mg/kg orally
Protocol: Hartley guinea-pigs were sensitized by inhaling twice 1% ovalbumin (OVA) in a physiological saline for 10 minutes with a nebulizer (Atom Medical Corporation, Japan) at an interval of 1 week. The animals were orally given a suspension of test compounds at a dose of 0.03 to 3 mg/2 mL/kg one week after the final sensitization. One hour later, the animals were exposed to antigens by inhalation of 2% OVA in a physiological saline for 5 minutes with a nebulizer. Thirty minutes before the antigen challenge, the animals were intraperitoneally pretreated with pyrilamine at a dose of 10 mg/kg to avoid fatality due to anaphylactic shock. Bronchoalveolar lavage fluid (BALF) samples were collected 24 hours after the exposure by inhalation of antigens, and eosinophils were counted.

[2] = tested on: T2, PDE IV isozymes separated from U937 culture cells; assay: PDE IV inhibition ([3H]-cAMP hydrolysis); format: biochemical; conditions: cAMP 1 μM substrate, 30° C., 20 minutes
T2 construct: PDE IV isozymes as used herein were separated from U937 culture cells by using an anion exchange chromatography
Protocol: PDE IV isozymes as used herein were separated from U937 culture cells by using an anion exchange chromatography. Type IV PDE isozyme was admixed with ethylene glycol (EG) to adjust the final EG concentration to 30%, then stored at −20° C. and diluted when used. The enzymatic activity for PDE IV was measured using cAMP as a substrate.
Each test compound was dissolved in DMSO to adjust the final concentration to 1% (2.5 μl/tube).
Incubation Buffer Solution (pH7.5):
• Tris-HCl (50 mM), magnesium chloride (6 mM), dithiothreitol (2.5 mM), 5-nucleotidase (4 μg/ml), bovine serum albumin (0.23 mg/ml), and cAMP (1 μM).
A mixture of the aforementioned test compound solution and the buffer solution was incubated at 30° C. for 20 minutes. The reaction was quenched by admixing with 1 ml of anion exchange resin slurry (AG1-X8, 200-400 meshes, chloride form; Bio-Rad) to absorb unreacted substrates. After the reaction stopped, the mixture was centrifuged at 800×g for 10 minutes, and the resulting supernatant was collected with vials in 250 μl aliquots. To each vial was added 5 ml of ACS-II (scintillator, Amersham). The radioactivity was measured with a liquid scintillator counter for [^3H]-adenosine and set as the PDE IV activity.

Beagle dogs = assay: Emetic action on dogs; format: in vivo; conditions: oral, 1 mg/kg
Protocol: Beagle dogs received a suspension of each test compound in 0.5% CMC-Na solution orally at a dose of 1 mg/2 mL/kg.

[3] = tested on: lung neutrophil infiltration; assay: Inhibition of lung neutrophil infiltration (LPS inhalation, BALF); format: in vivo, Hartley guinea-pigs; conditions: Cavia porcellus, guinea-pigs, oral, 1 hour before LPS inhalation, BALF neutrophils at 24 hours, read-out: Inhibition of Lung Neutrophil Infiltration ED50: mg/kg orally
Protocol: Hartley guinea-pigs were orally received a suspension of test compounds at a dose of 0.03 to 3 mg/2 mL/kg. One hour later, the animals were received 0.1 mg/mL lipopolylsaccharide (LPS) in a physiological saline via an inhalational route with a nebulizer for 30 minutes. Twenty-four hours after the LPS inhalation, BALF samples were collected, and neutrophils were counted.

CYP2D6 = target: T3, CYP2D6 (Homo sapiens, UniProt P10635); assay: Inhibition of drug-metabolizing enzyme CYP2D6 (CYP2D6/AMMC kit); format: in vitro ADME; conditions: CYP2D6-expressing microsomes, AMMC substrate, 37° C., 30 minutes; read-out: Inhibition of Drug-Metabolizing Enzymes (IC50; μM) CYP2D6
T3 construct: purchased BD Biosciences, NJ, USA; host or cells: CYP2D6-expressing system microsomes
T3 sequence (P10635 whole entry): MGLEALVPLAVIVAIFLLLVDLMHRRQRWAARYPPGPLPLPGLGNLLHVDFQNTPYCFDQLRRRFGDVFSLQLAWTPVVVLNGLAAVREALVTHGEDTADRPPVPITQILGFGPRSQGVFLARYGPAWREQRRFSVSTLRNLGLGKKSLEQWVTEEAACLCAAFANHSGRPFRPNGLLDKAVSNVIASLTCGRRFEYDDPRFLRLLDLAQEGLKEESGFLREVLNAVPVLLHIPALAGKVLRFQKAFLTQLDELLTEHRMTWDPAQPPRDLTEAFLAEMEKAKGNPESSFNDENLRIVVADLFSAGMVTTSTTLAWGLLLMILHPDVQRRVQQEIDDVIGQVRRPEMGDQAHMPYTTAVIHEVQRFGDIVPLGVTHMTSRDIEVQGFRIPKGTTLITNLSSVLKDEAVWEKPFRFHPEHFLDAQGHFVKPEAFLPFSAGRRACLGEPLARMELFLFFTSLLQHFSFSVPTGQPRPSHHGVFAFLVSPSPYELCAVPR
Protocol: as §1

rats = assay: Toxicology study (2-weeks administration to rats); format: in vivo; conditions: oral, 1, 5, or 25 mg/5 ml/kg
Protocol: Each compound of the present invention (Example Nos. 9 and 33) was administered orally to rats (6 animals per group) as a test compound. […] The test compound was suspended in 0.5% CMC-Na solution and given orally to the animal at a dose of 1, 5, or 25 mg/5 ml/kg in a forced manner.

TNF-α production = assay: Inhibition of TNF-α production in galactosamine- and LPS-stimulation; format: in vivo; conditions: Mus musculus; C3H/HeN mice, oral, 1 hour before galactosamine/LPS i.v.; serum TNF-α by ELISA 1 hour later; read-out: Inhibition of TNF-α production ED50: mg/kg orally
Protocol: A suspension of each test compound in 0.5% CMC-Na solution was administered orally to C3H/HeN mice at a dose of 0.10 to 10 mg/kg. One hour later, the animals received intravenously galactosamine at a dose of 800 mg/kg and LPS at a dose 5 μg/kg to raise the induction of TNF-α production. One hour later after the galactosamine- and LPS-administration, amounts of TNF-α in serum samples were measured by ELISA, and ED50 was obtained. Roflumilast and SB207499 were used for the reference compounds in this assay.

Row | SMILES | IC50 (CYP3A4) [µM] | ED50 [1] [mg/kg] | IC50 [2] [µM] | Occurrence of emesis (Beagle dogs) | ED50 [3] [mg/kg] | IC50 (CYP2D6) [µM] | Abnormality in other parameters (rats) | Body weight gain (rats) | Mortality (rats) | ED50 (TNF-α production) [mg/kg]
1 | O=c1c2c(Cc3ccccc3)n[nH]c2c2cccnc2n1-c1ccccc1 [Example No. 9, 3-benzyl-5-phenyl-1H-pyrazolo[4,3-c][1,8]naphthyridin-4 (5H)-one] | 8.5 | < 0.03 | 0.084 | no observation for emetic actions | 0.12 | > 10 | no clear abnormality was observed | No significant reduction of body weight gains was observed | None of the animals were died | 0.22
2 | O=c1c2c(Cc3ccc(F)cc3)n[nH]c2c2cccnc2n1-c1ccccc1 [Example No. 33, 3-(4-fluorobenzyl)-5-phenyl-1H-pyrazolo[4,3-c][1,8]naphthyridin-4 (5H)-one] | 6.2 | 0.03 | 0.068 | no observation for emetic actions | 0.09 | > 10 | no clear abnormality was observed | No significant reduction of body weight gains was observed | None of the animals were died | 0.1
